From ChEMBL document CHEMBL3112449, “Identification of a selective inhibitor of murine intestinal alkaline phosphatase (ML260) by concurrent ultra-high throughput screening against human and mouse isozymes” (Bioorg Med Chem Lett, 2014)
Calls of active or inactive are those of the source. The rule behind the calls is not given here.

Assays:
[1] = target: Alkaline phosphatase, placental type (Homo sapiens, UniProt P05187); experiment: Inhibition of FLAG-tagged PLAP (unknown origin) expressed in African green monkey COS1 cells after 30 mins by chemiluminescence assay; assay type: cell-based, COS-1
[2] = target: T1, Alkaline phosphatase, tissue-nonspecific isozyme (Homo sapiens, UniProt P05186); experiment: Inhibition of FLAG-tagged TNAP (unknown origin) expressed in African green monkey COS1 cells after 30 mins by chemiluminescence assay; assay type: cell-based, COS-1
T1 sequence (P05186 whole entry): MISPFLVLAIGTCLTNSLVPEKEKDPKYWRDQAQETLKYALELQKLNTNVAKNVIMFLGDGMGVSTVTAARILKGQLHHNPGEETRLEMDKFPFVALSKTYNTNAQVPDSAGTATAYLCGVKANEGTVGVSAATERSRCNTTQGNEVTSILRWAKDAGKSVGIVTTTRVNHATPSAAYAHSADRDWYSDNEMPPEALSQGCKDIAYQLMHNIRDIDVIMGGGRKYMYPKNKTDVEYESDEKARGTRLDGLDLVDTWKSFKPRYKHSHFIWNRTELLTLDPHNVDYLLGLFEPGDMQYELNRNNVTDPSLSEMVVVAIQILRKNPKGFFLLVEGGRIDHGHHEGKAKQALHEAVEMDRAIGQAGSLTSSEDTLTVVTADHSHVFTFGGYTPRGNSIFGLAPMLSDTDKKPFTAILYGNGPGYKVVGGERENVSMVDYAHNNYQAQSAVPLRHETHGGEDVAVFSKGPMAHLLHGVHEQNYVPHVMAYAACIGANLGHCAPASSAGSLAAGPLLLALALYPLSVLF

[3] = target: T2, Intestinal-type alkaline phosphatase (Mus musculus, UniProt P24822); experiment: Inhibition of mouse duodenal-specific FLAG-tagged IAP expressed in African green monkey COS1 cells after 30 mins by chemiluminescence assay; assay type: cell-based, COS-1
[4] = target: T3, Intestinal-type alkaline phosphatase (Homo sapiens, UniProt P09923); experiment: Inhibition of human FLAG-tagged IAP expressed in African green monkey COS1 cells using p-nitrophenyl phosphate as substrate after 30 mins by chemiluminescence assay; assay type: cell-based, COS-1
[5] = target: T2, Intestinal-type alkaline phosphatase; experiment: Competitive inhibition of mouse duodenal-specific FLAG-tagged IAP expressed in African green monkey COS1 cells using p-nitrophenyl phosphate as substrate by double reciprocal plot analysis; assay type: cell-based, COS-1; conditions: read-out: Ki(app)
[6] = Inhibition of mouse gIAP using p-nitrophenyl phosphate as substrate after 30 mins by chemiluminescence assay
[7] = target: T4, Alkaline phosphatase, germ cell type (Mus musculus, UniProt P24823); experiment: Inhibition of mouse EAP using p-nitrophenyl phosphate as substrate after 30 mins by chemiluminescence assay
T4 sequence (P24823 whole entry): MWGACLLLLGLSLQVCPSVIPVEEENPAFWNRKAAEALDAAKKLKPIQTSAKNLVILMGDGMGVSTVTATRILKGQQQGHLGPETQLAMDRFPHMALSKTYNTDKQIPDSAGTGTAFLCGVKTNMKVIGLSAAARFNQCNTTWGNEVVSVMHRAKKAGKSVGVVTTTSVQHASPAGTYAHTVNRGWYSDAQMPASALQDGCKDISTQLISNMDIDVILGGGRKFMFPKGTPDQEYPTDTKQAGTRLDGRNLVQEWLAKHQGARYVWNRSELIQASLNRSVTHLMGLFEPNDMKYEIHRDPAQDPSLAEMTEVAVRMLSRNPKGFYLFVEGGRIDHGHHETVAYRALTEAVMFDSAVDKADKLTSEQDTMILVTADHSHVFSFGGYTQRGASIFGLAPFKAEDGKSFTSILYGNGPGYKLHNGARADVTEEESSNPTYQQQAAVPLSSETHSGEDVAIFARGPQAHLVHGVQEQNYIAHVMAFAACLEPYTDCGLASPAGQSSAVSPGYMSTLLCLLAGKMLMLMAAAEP

[8] = target: T2, Intestinal-type alkaline phosphatase; experiment: Inhibition of mouse duodenal-specific FLAG-tagged IAP expressed in African green monkey COS1 cells using p-nitrophenyl phosphate as substrate after 30 mins by chemiluminescence assay
[9] = target: Intestinal-type alkaline phosphatase (Mus musculus) (UniProt P24822); conditions: CHO-K1, 10 uM
Description: Inhibition of mouse duodenal-specific IAP expressed in CHOK1 cells at 10 uM by ELF97 staining-based phase contrast microscopic analysis

[10] = target: T3, Intestinal-type alkaline phosphatase; experiment: Inhibition of human FLAG-tagged IAP expressed in African green monkey COS1 cells after 30 mins by chemiluminescence assay; assay type: cell-based, COS-1

T2 sequence (P24822 whole entry): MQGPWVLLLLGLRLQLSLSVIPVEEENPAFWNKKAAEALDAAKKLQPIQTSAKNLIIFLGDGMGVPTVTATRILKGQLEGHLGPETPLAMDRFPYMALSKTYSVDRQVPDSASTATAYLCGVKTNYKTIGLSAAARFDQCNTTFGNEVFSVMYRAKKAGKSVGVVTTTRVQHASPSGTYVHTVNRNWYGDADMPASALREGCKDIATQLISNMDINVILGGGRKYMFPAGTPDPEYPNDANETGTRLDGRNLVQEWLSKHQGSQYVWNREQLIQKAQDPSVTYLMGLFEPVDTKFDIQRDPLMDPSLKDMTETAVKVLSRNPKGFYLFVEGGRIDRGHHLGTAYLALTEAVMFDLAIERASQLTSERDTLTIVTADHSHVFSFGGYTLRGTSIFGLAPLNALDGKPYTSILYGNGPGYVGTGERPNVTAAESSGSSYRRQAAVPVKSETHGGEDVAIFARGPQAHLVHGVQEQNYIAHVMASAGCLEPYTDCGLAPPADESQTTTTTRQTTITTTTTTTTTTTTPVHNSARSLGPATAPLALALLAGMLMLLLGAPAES
Sequence of Alkaline phosphatase, placental type (P05187 whole entry): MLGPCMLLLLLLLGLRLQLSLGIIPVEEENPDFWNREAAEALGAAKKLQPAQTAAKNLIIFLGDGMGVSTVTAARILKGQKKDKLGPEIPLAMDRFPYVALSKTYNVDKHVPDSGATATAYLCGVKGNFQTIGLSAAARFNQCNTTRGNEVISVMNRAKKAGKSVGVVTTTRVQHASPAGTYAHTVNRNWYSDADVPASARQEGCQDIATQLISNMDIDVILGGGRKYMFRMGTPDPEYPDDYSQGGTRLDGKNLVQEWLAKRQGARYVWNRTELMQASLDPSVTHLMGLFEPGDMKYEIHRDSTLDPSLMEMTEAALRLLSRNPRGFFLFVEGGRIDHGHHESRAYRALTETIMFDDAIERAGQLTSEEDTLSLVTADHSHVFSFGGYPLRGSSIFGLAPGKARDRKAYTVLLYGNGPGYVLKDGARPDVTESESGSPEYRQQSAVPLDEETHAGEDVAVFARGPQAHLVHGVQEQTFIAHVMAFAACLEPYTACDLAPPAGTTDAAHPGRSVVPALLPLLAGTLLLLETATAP
T3 sequence (P09923 whole entry): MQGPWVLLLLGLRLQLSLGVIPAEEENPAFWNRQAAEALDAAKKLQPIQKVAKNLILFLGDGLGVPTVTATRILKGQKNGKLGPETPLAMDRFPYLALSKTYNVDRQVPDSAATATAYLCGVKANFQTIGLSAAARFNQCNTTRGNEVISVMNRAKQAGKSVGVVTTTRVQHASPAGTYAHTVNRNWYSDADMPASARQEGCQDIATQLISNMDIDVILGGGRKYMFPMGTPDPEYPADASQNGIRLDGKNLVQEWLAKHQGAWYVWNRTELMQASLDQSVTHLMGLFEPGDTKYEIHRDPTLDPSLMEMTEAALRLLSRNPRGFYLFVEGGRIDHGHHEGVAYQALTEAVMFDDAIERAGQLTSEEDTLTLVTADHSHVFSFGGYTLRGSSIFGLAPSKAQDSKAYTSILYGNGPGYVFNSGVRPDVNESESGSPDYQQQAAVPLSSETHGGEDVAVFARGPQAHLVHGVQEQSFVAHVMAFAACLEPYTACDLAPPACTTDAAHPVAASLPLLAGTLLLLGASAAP
Sequence of Intestinal-type alkaline phosphatase (Mus musculus) (P24822 whole entry): as the sequence (P24822 whole entry) above

Structure (SMILES): N#Cc1ccc(NC(=O)NS(=O)(=O)c2ccc3[nH]c(=O)oc3c2)cc1
- IC50 [1]: > 100 µM
- IC50 [2]: > 100 µM
- IC50 [3]: > 100 µM

Structure (SMILES): COc1ccc(CNC(=O)NS(=O)(=O)c2ccc3[nH]c(=O)oc3c2)c(OC)c1
- IC50 [1]: > 100 µM
- IC50 [2]: > 100 µM
- IC50 [3]: 89 µM

Structure (SMILES): O=C(CCNS(=O)(=O)c1ccc2[nH]c(=O)oc2c1)NCCc1ccc2c(c1)OCO2
- IC50 [1]: > 100 µM
- IC50 [2]: > 100 µM
- IC50 [3]: 19 µM

Structure (SMILES): O=C(CNS(=O)(=O)c1ccc2[nH]c(=O)oc2c1)NCc1ccc2c(c1)OCO2
- IC50 [1]: > 100 µM
- IC50 [2]: > 100 µM
- IC50 [3]: > 100 µM

Structure (SMILES): O=C(NCCc1ccc2c(c1)OCO2)NS(=O)(=O)c1ccc2[nH]c(=O)oc2c1
- IC50 [1]: > 100 µM
- IC50 [2]: > 100 µM
- IC50 [3]: > 100 µM

Structure (SMILES): O=C(Nc1ccc2c(c1)OCO2)NS(=O)(=O)c1ccc2[nH]c(=O)oc2c1
- IC50 [1]: > 100 µM
- IC50 [2]: > 100 µM
- IC50 [3]: > 100 µM

Structure (SMILES): O=C(CCCNS(=O)(=O)c1ccc2[nH]c(=O)oc2c1)NCc1ccc2c(c1)OCO2
- IC50 [1]: > 100 µM
- IC50 [2]: > 100 µM
- IC50 [3]: 45 µM

Structure (SMILES): COc1cccc(CNC(=O)NS(=O)(=O)c2ccc3[nH]c(=O)oc3c2)c1
- IC50 [1]: > 100 µM
- IC50 [2]: > 100 µM
- IC50 [3]: 40 µM

Structure (SMILES): O=C(CNS(=O)(=O)c1ccc2[nH]c(=O)oc2c1)NCCc1ccc2c(c1)OCO2
- IC50 [1]: > 100 µM
- IC50 [2]: > 100 µM
- IC50 [3]: > 100 µM

Structure (SMILES): O=C(CCNS(=O)(=O)c1ccc2[nH]c(=O)oc2c1)NCc1ccc2c(c1)OCO2
- IC50 [1]: > 100 µM
- IC50 [2]: > 100 µM
- IC50 [3]: 2.6 µM

Structure (SMILES): O=C(CCNS(=O)(=O)c1ccc2[nH]c(=O)oc2c1)NCCCc1ccc2c(c1)OCO2
- IC50 [1]: > 100 µM
- IC50 [2]: > 100 µM
- IC50 [3]: 44 µM

Structure (SMILES): Cc1ccc(C)c(NC(=O)NS(=O)(=O)c2ccc3[nH]c(=O)oc3c2)c1
- IC50 [1]: > 100 µM
- IC50 [2]: > 100 µM
- IC50 [3]: > 100 µM

Structure (SMILES): COc1ccc(NC(=O)NS(=O)(=O)c2ccc3[nH]c(=O)oc3c2)cc1OC
- IC50 [1]: > 100 µM
- IC50 [2]: > 100 µM
- IC50 [3]: > 100 µM

Structure (SMILES): Cc1ccc(C)c(NC(=O)CNS(=O)(=O)c2ccc3[nH]c(=O)oc3c2)c1
- IC50 [4]: 27.6 µM
- Ki [5]: 3.2 µM
- IC50 [6]: 21 µM
- IC50 [7]: 21.1 µM
- IC50 [8]: 3.8 µM
- IC50 [1]: > 100 µM
- IC50 [2]: 35 µM
- IC50 [3]: 0.54 µM
- inhibition [9]: Active

Structure (SMILES): N#Cc1cccc(NC(=O)CCNS(=O)(=O)c2ccc3nc(O)oc3c2)c1
- IC50 [1]: > 100 µM
- IC50 [2]: > 100 µM
- IC50 [10]: > 100 µM
- IC50 [3]: 1.82 µM

Structure (SMILES): N#Cc1cccc(NC(=O)NS(=O)(=O)c2ccc3[nH]c(=O)oc3c2)c1
- IC50 [1]: > 100 µM
- IC50 [2]: > 100 µM
- IC50 [3]: > 100 µM

Structure (SMILES): O=C(CCNS(=O)(=O)c1ccc2[nH]c(=O)oc2c1)Nc1ccc2c(c1)OCO2
- IC50 [1]: > 100 µM
- IC50 [2]: > 100 µM
- IC50 [3]: 12 µM
